Test results: US8981114B2, “Derivatives of 1-(substituted sulfonyl)-2-aminoimidazoline as antitumor and antiproliferative agents” (OncoArendi Therapeutics Sp. z.o.o., priority 2013, dated 2015)

Each molecule was assayed on colon human tumor (HT-29) cells (assay: Cell growth inhibitory activity, standard MTT assay). Conditions: Homo sapiens, MTT assay after 72 hr exposure, 0.1% DMSO, read-out: IC50 range.
Format: cell-based
Procedure: Cell growth inhibitory activity of compounds of this invention was determined using a standard MTT assay. Adherent cells of colon human tumor (HT-29) sourced from ATCC (cells number: HTB-38) were treated with DMSO solutions of tested compounds with the ultimate concentration of DMSO in the test solution being 0.1%. Following the 72 hour long treatment MTT was added, and after a brief incubation the resulting formazan was dissolved in addional DMSO and the solutions were scanned using 570 nm wavelength.

CC(C)NC(=O)N1CCc2cc(S(=O)(=O)N3C[C@H](c4ccccc4)N=C3N)ccc21 [Example 98] was tested, and the IC50 was < 100 nM.

Same assay, conditions: MTT assay after 72 hr exposure, 0.1% DMSO, read-out: IC50 range

NC1=N[C@@H](c2ccccc2)CN1S(=O)(=O)c1ccc2c(c1)CCN2C(=O)c1ccco1 [Example 35] and NC1=N[C@@H](c2ccccc2)CN1S(=O)(=O)c1ccc2c(c1)CCN2C(=O)c1cccs1 [Example 38] cannot be ordered by IC50: < 100 nM for the first, < 100 nM for the second.

COCCNC(=O)N1CCc2cc(S(=O)(=O)N3CCN=C3N)ccc21 [Example 76] and CCCNC(=O)N1CCc2cc(S(=O)(=O)N3C[C@H](c4ccc(OC)cc4)N=C3N)ccc21 [Example 84] fall in the same range of IC50: 100 to 500 nM for the first, 100 to 500 nM for the second.

Compared with CCCNC(=O)N1CCc2cc(S(=O)(=O)N3C[C@H](c4ccc(F)cc4)N=C3N)ccc21 [Example 83], CCCCNC(=O)N1CCc2cc(S(=O)(=O)N3C[C@H](c4ccc(Cl)cc4)N=C3N)ccc21 [Example 97] is higher in IC50: < 100 nM for the first, 100 to 500 nM for the second. The first is the more potent here.

CC(C)(C)CNC(=O)N1CCc2cc(S(=O)(=O)N3C[C@H](c4ccccc4)N=C3N)ccc21 [Example 102] and CCCNC(=O)N1CCc2cc(S(=O)(=O)N3C[C@H](c4ccccc4)N=C3N)ccc21 [Example 82] cannot be ordered by IC50: < 100 nM for the first, < 100 nM for the second.

CN(C)c1ccc(C(=O)N2CCc3cc(S(=O)(=O)N4C[C@H](c5ccccc5)N=C4N)ccc32)cc1 [Example 46] and CCOc1ccc(C(=O)N2CCc3cc(S(=O)(=O)N4C[C@H](c5ccccc5)N=C4N)ccc32)cc1 [Example 47] cannot be ordered by IC50: < 100 nM for the first, < 100 nM for the second.

CC(=O)N1CCC(C(=O)N2CCc3cc(S(=O)(=O)N4C[C@H](c5ccccc5)N=C4N)ccc32)CC1 [Example 50] and NC1=N[C@@H](c2ccccc2)CN1S(=O)(=O)c1ccc2c(c1)CCN2C(=O)C1CCCCC1 [Example 51] cannot be ordered by IC50: < 100 nM for the first, < 100 nM for the second.

NC1=N[C@@H](c2ccccc2)CN1S(=O)(=O)c1ccc2c(c1)CCN2C(=O)Cc1ccccc1 [Example 48] and NC1=N[C@@H](c2ccccc2)CN1S(=O)(=O)c1ccc2c(c1)CCN2C(=O)c1ccccc1 [Example 44] cannot be ordered by IC50: < 100 nM for the first, < 100 nM for the second.

Compared with NC1=N[C@@H](c2ccccc2)CN1S(=O)(=O)c1ccc2c(c1)CCN2 [Example 70], CC(=O)N1CCc2cc(S(=O)(=O)N3C[C@H](c4ccccc4)N=C3N)ccc21 [Example 39] is higher in IC50: < 100 nM for the first, 100 to 500 nM for the second. The first is the more potent here.

Compared with CCCC(=O)N1CCc2cc(S(=O)(=O)N3C[C@@H](c4ccccc4)N=C3N)ccc21 [Example 57], CCCC(=O)N1CCc2cc(S(=O)(=O)N3C[C@H](c4ccccc4)N=C3N)ccc21 [Example 41] is lower in IC50: > 500 nM for the first, < 100 nM for the second.

First: COc1ccc([C@H]2CN(S(=O)(=O)c3ccc4c(c3)CCN4C(=O)c3cccn3C)C(N)=N2)cc1 [Example 62]
Second: Cc1cccc([C@H]2CN(S(=O)(=O)c3ccc4c(c3)CCN4C(=O)c3cccn3C)C(N)=N2)c1 [Example 65]
The IC50 of the first is higher: > 500 nM for the first, 100 to 500 nM for the second.

CCCNC(=O)N1CCc2cc(S(=O)(=O)N3C[C@H](c4ccccc4C)N=C3N)ccc21 [Example 87] and CCCCNC(=O)N1CCc2cc(S(=O)(=O)N3C[C@H](c4ccccc4C)N=C3N)ccc21 [Example 95] cannot be ordered by IC50: < 100 nM for the first, < 100 nM for the second.

NC1=N[C@@H](c2ccccc2)CN1S(=O)(=O)c1ccc2c(c1)CCN2C(=O)NCC1CC1 [Example 100] and CCCCNC(=O)N1CCc2cc(S(=O)(=O)N3C[C@H](c4ccccc4)N=C3N)ccc21 [Example 89] cannot be ordered by IC50: < 100 nM for the first, < 100 nM for the second.

CCC(=O)N1CCc2cc(S(=O)(=O)N3C[C@H](c4ccccc4)N=C3N)ccc21 [Example 40] and COC(=O)N1CCc2cc(S(=O)(=O)N3C[C@H](c4ccccc4)N=C3N)ccc21 [Example 49] cannot be ordered by IC50: < 100 nM for the first, < 100 nM for the second.

CC(C)C(=O)N1CCc2cc(S(=O)(=O)N3C[C@H](c4ccccc4)N=C3N)ccc21 [Example 42] and CC(C)NC(=S)N1CCc2cc(S(=O)(=O)N3C[C@H](c4ccccc4)N=C3N)ccc21 [Example 55] cannot be ordered by IC50: < 100 nM for the first, < 100 nM for the second.

CCCCNC(=O)N1CCc2cc(S(=O)(=O)N3C[C@H](c4cccc(Cl)c4)N=C3N)ccc21 [Example 93] and CCCC(=O)N1CCCc2cc(S(=O)(=O)N3C[C@H](c4ccccc4)N=C3N)ccc21 [Example 56] cannot be ordered by IC50: < 100 nM for the first, < 100 nM for the second.

CC(C)[C@H]1CN(S(=O)(=O)c2ccc3c(c2)CCN3C(=O)c2ccco2)C(N)=N1 [Example 36] and NC1=N[C@@H](C2CCCCC2)CN1S(=O)(=O)c1ccc2c(c1)CCN2C(=O)c1ccco1 [Example 37] cannot be ordered by IC50: < 100 nM for the first, < 100 nM for the second.

NC1=N[C@@H](c2ccccc2)CN1S(=O)(=O)c1ccc2c(c1)CCN2C(=O)c1cccnc1 [Example 53] and NC1=N[C@@H](c2ccccc2)CN1S(=O)(=O)c1ccc2c(c1)CCN2C(=O)Cc1cccs1 [Example 43] cannot be ordered by IC50: < 100 nM for the first, < 100 nM for the second.

NC1=N[C@@H](c2ccccc2)CN1S(=O)(=O)c1ccc2c(c1)CCN2C(=O)c1cccc2ccccc12 [Example 52] and CC1Cc2cc(S(=O)(=O)N3CC(c4ccccc4)N=C3N)ccc2N1C(=O)c1ccc(N)cc1 (mixture of isomers) [Example 54] cannot be ordered by IC50: < 100 nM for the first, < 100 nM for the second.

In the case of Cn1cccc1C(=O)N1CCc2cc(S(=O)(=O)N3C[C@H](c4ccccc4Cl)N=C3N)ccc21 [Example 64], the IC50 is reported as < 100 nM.
